Key:
[1] = Hard surface cleaning formulation pH testing over 7 days; type: physicochemical; details: 5 g solvent per 100 g
Protocol: Formulations were prepared by combining ingredients and mixing until homogeneous. Next, pH measurements were taken over 7 days.

[2] = Coupling of water and octanoic acid by hydrotropes (amount producing a single phase); type: physicochemical
Protocol: Hydrotropes were added to a two-component mixture of octanoic acid and deionized (DI) water to find the amount that produced a single phase from the two separate phases of water and octanoic acid.
The percent hydrotrope required to compatibilize phases (and the resulting percent octanoic acid) were calculated and the results are shown in Table 4 as well as FIG. 1.

[3] = Coupling of water and soy methyl ester by hydrotropes; type: physicochemical
Protocol: Hydrotropes were added to a two-component mixture of soy methyl ester and DI water to find the amount that produced a single phase from the two separate phases of water and soy methyl ester. The percent hydrotrope required to compatibilize the phases was calculated.

[4] = Coupling of water and castor oil by hydrotropes; type: physicochemical
[5] = Hair dye active solubility testing
Protocol: Two component mixtures using ketal alcohol (1a) and the actives shown in Table 13 were prepared by mixing the components at various proportions in a vial at room temperature and then heating in a lab oven at 80° C. for 10 minutes and then shaking.
Comparative formulations using EtLGK and ketal alcohol (1a) are shown below in Tables 14 and 15.

[6] = ratio of water:octanoic acid 10:90
[7] = ratio of water:octanoic acid 30:70
[8] = ratio of water:octanoic acid 50:50
[9] = ratio of water:octanoic acid 70:30
[10] = ratio of water:octanoic acid 90:10
[11] = water:octanoic acid 10:90 (DI water 0.5 g, octanoic acid 4.5 g)
[12] = water:octanoic acid 30:70 (DI water 1.5 g, octanoic acid 3.5 g)
[13] = water:octanoic acid 50:50 (DI water 5.0 g, octanoic acid 5.0 g)
[14] = water:octanoic acid 70:30 (DI water 3.5 g, octanoic acid 1.5 g)
[15] = water:octanoic acid 90:10 (DI water 4.5 g, octanoic acid 0.5 g)
[16] = ratio of water:soy methyl esters 10:90
[17] = ratio of water:soy methyl esters 30:70
[18] = ratio of water:soy methyl esters 50:50
[19] = ratio of water:soy methyl esters 70:30
[20] = ratio of water:soy methyl esters 90:10
[21] = ratio of water to castor oil 10:90
[22] = ratio of water to castor oil 30:70
[23] = ratio of water to castor oil 50:50
[24] = ratio of water to castor oil 70:30
[25] = ratio of water to castor oil 90:10
[26] = all ratios 10:90 to 90:10, measured levels up to >95%

| Molecule | Wt % Hydrotrope required to compatibilize phases [2, 6] [%] | Wt % Octanoic Acid (resulting, at compatibilization) [2, 6] [%] | Wt % Hydrotrope required to compatibilize phases [2, 7] [%] | Wt % Octanoic Acid (resulting, at compatibilization) [2, 7] [%] | Wt % Hydrotrope required to compatibilize phases [2, 8] [%] | Wt % Octanoic Acid (resulting, at compatibilization) [2, 8] [%] | Wt % Hydrotrope required to compatibilize phases [2, 9] [%] | Wt % Octanoic Acid (resulting, at compatibilization) [2, 9] [%] | Wt % Hydrotrope required to compatibilize phases [2, 10] [%] | Wt % Octanoic Acid (resulting, at compatibilization) [2, 10] [%] | Amount of hydrotrope that produced a single phase [2, 11] [grams] | Amount of hydrotrope that produced a single phase [2, 12] [grams] | Amount of hydrotrope that produced a single phase [2, 13] [grams] | Amount of hydrotrope that produced a single phase [2, 14] [grams] | Amount of hydrotrope that produced a single phase [2, 15] [grams] | further results |
| --- | --- | --- | --- | --- | --- | --- | --- | --- | --- | --- | --- | --- | --- | --- | --- | --- |
| CCOC(=O)CCC1(C)OCC(CO)O1 (stereo not shown) [Ketal alcohol (1a)] |  |  |  |  |  |  |  |  |  |  |  |  |  |  |  | pH stability of the formulation containing the solvent [1]: maintained the same pH as the formulation containing 2-butoxyethanol and the control formulation |
| CCO [ethanol] | 18 | 74 | 37 | 44 | 39 | 31 | 37 | 19 | 36 | 6 | 1.12 | 2.95 | 3.14 | 2.97 | 2.87 | Wt % Hydrotrope required to compatibilize the phases [3, 16]: 54%; Wt % Soy Methyl Esters (at compatibilization) [3, 16]: 41%; Wt % Hydrotrope required to compatibilize the phases [3, 17]: 74%; Wt % Soy Methyl Esters (at compatibilization) [3, 17]: 18%; Wt % Hydrotrope required to compatibilize the phases [3, 18]: 78%; Wt % Soy Methyl Esters (at compatibilization) [3, 18]: 11%; Wt % Hydrotrope required to compatibilize the phases [3, 19]: 80%; Wt % Soy Methyl Esters (at compatibilization) [3, 19]: 6%; Wt % Hydrotrope required to compatibilize the phases [3, 20]: 77%; Wt % Soy Methyl Esters (at compatibilization) [3, 20]: 2%; Wt % Castor oil (at compatibilization) [4, 21]: 40%; Wt % Hydrotrope required to compatibilize phases [4, 21]: 55%; Wt % Castor oil (at compatibilization) [4, 22]: 22%; Wt % Hydrotrope required to compatibilize phases [4, 22]: 69%; Wt % Castor oil (at compatibilization) [4, 23]: 10%; Wt % Hydrotrope required to compatibilize phases [4, 23]: 79%; Wt % Castor oil (at compatibilization) [4, 24]: 5%; Wt % Hydrotrope required to compatibilize phases [4, 24]: 82%; Wt % Castor oil (at compatibilization) [4, 25]: 2%; Wt % Hydrotrope required to compatibilize phases [4, 25]: 84% |
| Nc1ccc(N)cc1 [p-phenylene diamine] |  |  |  |  |  |  |  |  |  |  |  |  |  |  |  | Ketal Alcohol (1a) Solubility ([5]; Table 15, weight percentage active 1%): insoluble; Ketal Alcohol (1a) Solubility ([5]; weight percentage active 1%, 80° C. 10 minutes, shaking, room temperature 24 hours): soluble; EtLGK Solubility ([5]; weight percentage active 5% in EtLGK): soluble; Ketal Alcohol (1a) Solubility ([5]; weight percentage active 5%, 80° C. 10 minutes, shaking, room temperature 24 hours): soluble; Ketal Alcohol (1a) Solubility ([5]; weight percentage active 10%, 80° C. 10 minutes, shaking, room temperature 24 hours): insoluble |
| Sodium xylene-sulfonate [Sodium xylene-sulfonate (SXS) (40%)] | 13 | 61 | 16 | 43 | 17 | 29 | 17 | 18 | 16 | 6 | 2.32 | 3.23 | 7.4 | 3.55 | 3.33 | Compatibilization of water and soy methyl esters [3, 26]: *The sodium xylenesulfonate did not compatibilize at any measured level (up to >95%).; Compatibilization of water and castor oil [4, 26]: *The sodium xylenesulfonate did not compatibilize at any measured level (up to >95%). |

From US9458414B2, “Cleaning, surfactant, and personal care compositions” (SEGETIS, INC., priority 2012, dated 2016)
